Paper PMC6804006, “Synthesis, Biological Activities and Docking Studies of Novel 4-(Arylaminomethyl)benzamide Derivatives as Potential Tyrosine Kinase Inhibitors” (Molecules, 2019)

Columns and labels:
[1] = target: T1, KDR (VEGFR2) (Homo sapiens, UniProt P35968); assay: ADP-Glo kinase inhibitory assay, KDR; format: biochemical; conditions: 10 nM
T1 construct: purchased Promega
Protocol: (§1) We investigated the kinase selectivity of targeted compounds against eight receptor tyrosine kinases including EGFR (epidermal growth factor receptor), HER-2 and HER4 (human epidermal growth factor receptor), IGF1R (insulin like growth factor 1 receptor), InsR (gene insulin receptor), KDR (kinase insert domain receptor), and PDGFRa and PDGFRb (platelet-derived growth factor receptors). The assay was performed using the Kinase-Glo Plus luminescence kinase assay kit (TK-1+ADP-Glo™, Promega, San Diego, CA, USA). It measures kinase activity by quantitating the amount of ATP remaining in solution following a kinase reaction.
Vascular endothelial growth factor receptor 2 (VEGFR2), also called kinase insert domain receptor (KDR), is a tyrosine kinase receptor for VEGFs that plays a central role in tumor angiogenesis; therefore, the inhibition of VEGFR2 is a promising therapeutic strategy for inhibiting angiogenesis and tumor growth.
(§2) The assay was performed using a Kinase Selectivity Profiling System (TK-1+ADP-Glo™ Assay and TK-2+ADP-Glo™ Assay, Promega), where the kinase activity was measured by quantifying the amount of ADP produced during a kinase reaction. The assay is performed in two steps; firstly, after the kinase reaction, an equal volume of ADP-Glo™ Reagent is added to terminate the kinase reaction and deplete the remaining ATP. Secondly, the Kinase Detection Reagent is added to simultaneously convert ADP to ATP and allow the newly synthesized ATP to be measured using a luciferase/luciferin reaction. The luminescent signal generated is proportional to the ADP concentration produced and is correlated with kinase activity. Our compounds were diluted with kinase buffer (5% DMSO), and 1 μL of the dilution was added to a 5-μL reaction so that the final concentration of DMSO was 1% in all of reactions. All of the enzymatic reactions were conducted at 23 °C for 60 min. The 5-μL reaction mixture contained 1µL of the compound solution, 2µL of the enzyme solution, and 2 µL of kinase substrate. After the enzymatic reaction, 5 µL of ADP-Glo™ Reagent (Promega, USA) was added to each reaction, and the plate was incubated for 40 min at 23 °C. Then, 10 µL of Kinase Detection Reagent (Promega, USA) was added to each reaction, and the plate was incubated for 30 min at 23 °C. Luminescence signal was measured using an Infinite M 200 plate reader (Tecan, Switzerland).
(§3) Kinase activity assays were performed in duplicate at each concentration. The luminescence data were analyzed using the computer software, Magellan™. The difference between luminescence intensities in the absence of Kinase (Lut) and in the presence of Kinase (Luc) was defined as 100% activity (Lut − Luc).

[2] = target: T2, HER-2 (Homo sapiens, UniProt P04626); assay: ADP-Glo kinase inhibitory assay, HER-2; format: biochemical; conditions: read-out: % Inhibition at 10 nM, HER-2
T2 construct: purchased Promega
Protocol: as §1, §2, §3

[3] = target: T3, HER-4 (Homo sapiens, UniProt Q15303); assay: ADP-Glo kinase inhibitory assay, HER-4; format: biochemical; conditions: for inhibition at 0.01 µM: read-out: % Inhibition at 10 nM, HER-4; for inhibitory activity in relation to HER-4, in words: 10 nM, compared with imatinib
T3 construct: purchased Promega
T3 sequence (Q15303 26-1308): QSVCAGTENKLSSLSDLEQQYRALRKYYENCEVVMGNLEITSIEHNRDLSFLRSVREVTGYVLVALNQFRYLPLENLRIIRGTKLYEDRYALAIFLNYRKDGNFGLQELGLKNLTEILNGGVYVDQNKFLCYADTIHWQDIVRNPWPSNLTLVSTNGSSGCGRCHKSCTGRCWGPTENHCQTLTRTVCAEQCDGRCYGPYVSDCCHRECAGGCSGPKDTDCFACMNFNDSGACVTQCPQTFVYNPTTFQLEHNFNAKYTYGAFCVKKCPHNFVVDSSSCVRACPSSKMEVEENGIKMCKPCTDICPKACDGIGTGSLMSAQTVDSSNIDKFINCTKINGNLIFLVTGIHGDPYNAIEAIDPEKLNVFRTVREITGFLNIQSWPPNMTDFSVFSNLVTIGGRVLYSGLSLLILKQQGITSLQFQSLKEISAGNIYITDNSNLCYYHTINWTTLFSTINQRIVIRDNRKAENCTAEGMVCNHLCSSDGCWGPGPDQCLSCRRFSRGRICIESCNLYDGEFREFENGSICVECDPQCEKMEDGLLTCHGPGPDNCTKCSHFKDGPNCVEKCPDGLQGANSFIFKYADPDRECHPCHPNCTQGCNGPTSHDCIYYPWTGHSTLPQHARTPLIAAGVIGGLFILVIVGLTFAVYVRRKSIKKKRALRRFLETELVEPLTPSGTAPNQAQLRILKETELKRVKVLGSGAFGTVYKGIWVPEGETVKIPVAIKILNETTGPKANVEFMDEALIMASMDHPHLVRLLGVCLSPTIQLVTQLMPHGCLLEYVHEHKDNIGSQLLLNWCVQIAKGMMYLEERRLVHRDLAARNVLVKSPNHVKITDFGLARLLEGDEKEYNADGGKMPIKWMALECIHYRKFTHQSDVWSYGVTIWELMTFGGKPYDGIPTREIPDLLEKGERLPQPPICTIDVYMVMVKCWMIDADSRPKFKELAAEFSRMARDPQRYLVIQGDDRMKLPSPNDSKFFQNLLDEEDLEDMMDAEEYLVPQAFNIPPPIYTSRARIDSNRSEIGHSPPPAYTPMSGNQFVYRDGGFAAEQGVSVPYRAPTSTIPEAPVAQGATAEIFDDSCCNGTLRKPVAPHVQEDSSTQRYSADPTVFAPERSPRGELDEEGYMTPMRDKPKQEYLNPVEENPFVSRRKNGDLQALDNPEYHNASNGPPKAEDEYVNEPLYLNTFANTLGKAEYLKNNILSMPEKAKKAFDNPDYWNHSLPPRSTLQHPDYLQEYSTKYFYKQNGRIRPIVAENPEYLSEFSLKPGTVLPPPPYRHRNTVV
Protocol: as §1, §2, §3

[4] = target: T4, EGFR (Homo sapiens, UniProt P00533); assay: ADP-Glo kinase inhibitory assay, EGFR; format: biochemical; conditions: read-out: % Inhibition at 10 nM, EGFR
T4 construct: purchased Promega
T4 sequence (P00533 25-1210): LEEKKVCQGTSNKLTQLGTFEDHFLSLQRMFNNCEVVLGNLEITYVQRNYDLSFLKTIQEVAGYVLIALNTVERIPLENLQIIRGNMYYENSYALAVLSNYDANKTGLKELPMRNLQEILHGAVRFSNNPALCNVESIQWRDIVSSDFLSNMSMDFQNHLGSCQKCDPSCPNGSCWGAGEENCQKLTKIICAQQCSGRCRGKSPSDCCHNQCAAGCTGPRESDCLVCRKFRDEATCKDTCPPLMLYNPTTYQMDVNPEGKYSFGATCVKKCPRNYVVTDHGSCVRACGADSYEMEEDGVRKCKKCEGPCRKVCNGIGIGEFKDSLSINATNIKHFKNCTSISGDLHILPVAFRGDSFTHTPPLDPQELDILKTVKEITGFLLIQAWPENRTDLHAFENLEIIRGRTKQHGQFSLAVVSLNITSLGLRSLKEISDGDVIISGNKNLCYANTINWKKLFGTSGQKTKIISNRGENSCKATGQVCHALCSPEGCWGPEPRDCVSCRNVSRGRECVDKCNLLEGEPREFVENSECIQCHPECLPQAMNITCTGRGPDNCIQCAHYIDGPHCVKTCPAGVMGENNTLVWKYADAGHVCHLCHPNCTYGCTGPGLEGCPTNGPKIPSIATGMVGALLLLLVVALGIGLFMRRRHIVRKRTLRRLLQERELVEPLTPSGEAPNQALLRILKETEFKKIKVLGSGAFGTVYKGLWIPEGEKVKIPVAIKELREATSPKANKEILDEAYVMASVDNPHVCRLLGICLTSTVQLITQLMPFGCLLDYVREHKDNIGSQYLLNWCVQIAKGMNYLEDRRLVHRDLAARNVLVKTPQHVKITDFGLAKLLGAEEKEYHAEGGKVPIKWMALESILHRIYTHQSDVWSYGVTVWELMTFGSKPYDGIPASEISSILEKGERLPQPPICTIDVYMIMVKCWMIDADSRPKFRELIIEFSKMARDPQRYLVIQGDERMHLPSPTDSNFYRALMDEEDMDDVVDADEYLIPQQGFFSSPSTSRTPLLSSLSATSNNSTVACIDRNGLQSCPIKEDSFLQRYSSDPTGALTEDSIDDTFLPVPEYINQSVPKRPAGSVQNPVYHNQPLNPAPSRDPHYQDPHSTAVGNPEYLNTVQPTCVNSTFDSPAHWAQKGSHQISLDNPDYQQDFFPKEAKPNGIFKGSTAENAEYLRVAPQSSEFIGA
Protocol: as §1, §2, §3

[5] = target: T5, IGF1R (Homo sapiens, UniProt P08069); assay: ADP-Glo kinase inhibitory assay, IGF1R; format: biochemical; conditions: read-out: % Inhibition at 10 nM, IGF1R
T5 construct: purchased Promega
T5 sequence (P08069 31-1367): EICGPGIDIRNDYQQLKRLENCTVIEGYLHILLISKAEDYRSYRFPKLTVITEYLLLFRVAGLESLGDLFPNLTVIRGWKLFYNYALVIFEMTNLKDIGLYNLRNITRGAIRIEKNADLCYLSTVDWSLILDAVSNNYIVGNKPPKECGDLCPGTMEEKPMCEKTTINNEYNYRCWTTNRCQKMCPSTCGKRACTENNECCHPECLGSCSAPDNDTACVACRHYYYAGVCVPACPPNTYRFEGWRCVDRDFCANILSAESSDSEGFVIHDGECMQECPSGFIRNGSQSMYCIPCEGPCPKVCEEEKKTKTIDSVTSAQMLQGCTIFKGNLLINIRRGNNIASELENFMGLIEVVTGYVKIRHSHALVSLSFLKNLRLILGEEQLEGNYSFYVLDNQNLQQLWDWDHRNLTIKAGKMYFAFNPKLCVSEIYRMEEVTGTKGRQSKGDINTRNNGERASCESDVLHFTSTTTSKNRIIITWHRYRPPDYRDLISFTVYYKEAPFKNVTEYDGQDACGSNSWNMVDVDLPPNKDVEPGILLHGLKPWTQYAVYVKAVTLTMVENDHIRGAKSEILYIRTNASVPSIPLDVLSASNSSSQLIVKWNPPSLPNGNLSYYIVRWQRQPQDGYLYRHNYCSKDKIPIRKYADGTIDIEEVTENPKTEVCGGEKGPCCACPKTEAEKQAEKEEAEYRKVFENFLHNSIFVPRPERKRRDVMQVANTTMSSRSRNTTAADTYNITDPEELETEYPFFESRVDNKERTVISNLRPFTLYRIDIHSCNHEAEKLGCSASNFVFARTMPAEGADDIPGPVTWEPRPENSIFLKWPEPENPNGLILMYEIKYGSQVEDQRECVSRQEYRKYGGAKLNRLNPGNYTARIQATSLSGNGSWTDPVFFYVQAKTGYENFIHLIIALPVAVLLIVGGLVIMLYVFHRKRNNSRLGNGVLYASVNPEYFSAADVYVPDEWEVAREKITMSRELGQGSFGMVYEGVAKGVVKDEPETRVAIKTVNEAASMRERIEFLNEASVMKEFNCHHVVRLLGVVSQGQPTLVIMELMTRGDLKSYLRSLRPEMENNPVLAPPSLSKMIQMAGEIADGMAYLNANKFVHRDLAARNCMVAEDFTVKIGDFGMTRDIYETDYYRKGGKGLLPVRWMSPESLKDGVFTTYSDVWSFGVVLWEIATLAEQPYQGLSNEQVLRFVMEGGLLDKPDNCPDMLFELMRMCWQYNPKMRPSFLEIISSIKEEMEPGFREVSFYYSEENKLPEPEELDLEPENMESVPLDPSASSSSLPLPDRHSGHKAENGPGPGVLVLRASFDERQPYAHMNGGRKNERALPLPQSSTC
Protocol: as §1, §2, §3

[6] = system: HeLa (cervix carcinoma); assay: MTT anti-proliferative assay, HeLa; format: cell-based; conditions: Homo sapiens, 48 h, 50% growth inhibition
Protocol: (§4) Each in vitro experiment was performed at least in triplicate, and the standard deviation of absorbance was less than 10% of the mean. For the in vitro assays, a stock solution (1% DMSO in the appropriate buffer with the tested compound diluted under sonication) was prepared from which several dilutions were made with the appropriate buffer.
(§5) Human cell lines were obtained from the Institute of Cytology, Russian Academy of Sciences. […] Cellular sensitivities to clofarabine and its lipid derivatives were measured with the MTT assay. Cells were plated in triplicate in 96-well plates (10^5 cells/well for suspended cell cultures and 5 × 10^3 cells/well for monolayer cultures); on the same day (suspended cell cultures) or on the following day (monolayer cultures), compounds were added at the appropriate dilutions. Plates were incubated under standard conditions for 48 h. Thereafter, 10 μL of MTT (Sigma) in phosphate-buffered saline (5 mg/mL) was added. The plates were incubated for an additional 4 h, and 150 μL of dimethyl sulfoxide (DMSO) was added to dissolve the formazan crystals. The optical density was read on a HALO MPR-95 Microplate Reader (Dynamica Scientific Ltd., Australia) at 570 nm. The antiproliferative effects were determined as degrees of inhibition of tumor cells (%).

[7] = system: HL-60 (promyelocytic leukemia); assay: MTT anti-proliferative assay, HL-60; format: cell-based, human; conditions: Homo sapiens, HL-60, 48 h, 50% growth inhibition
Protocol: as §4, §5

[8] = target: T6, PDGFRb (Homo sapiens, UniProt P09619); assay: ADP-Glo kinase inhibitory assay, PDGFRb; format: biochemical; conditions: read-out: % Inhibition at 10 nM, PDGFRb
T6 construct: purchased Promega
T6 sequence (P09619 33-1106): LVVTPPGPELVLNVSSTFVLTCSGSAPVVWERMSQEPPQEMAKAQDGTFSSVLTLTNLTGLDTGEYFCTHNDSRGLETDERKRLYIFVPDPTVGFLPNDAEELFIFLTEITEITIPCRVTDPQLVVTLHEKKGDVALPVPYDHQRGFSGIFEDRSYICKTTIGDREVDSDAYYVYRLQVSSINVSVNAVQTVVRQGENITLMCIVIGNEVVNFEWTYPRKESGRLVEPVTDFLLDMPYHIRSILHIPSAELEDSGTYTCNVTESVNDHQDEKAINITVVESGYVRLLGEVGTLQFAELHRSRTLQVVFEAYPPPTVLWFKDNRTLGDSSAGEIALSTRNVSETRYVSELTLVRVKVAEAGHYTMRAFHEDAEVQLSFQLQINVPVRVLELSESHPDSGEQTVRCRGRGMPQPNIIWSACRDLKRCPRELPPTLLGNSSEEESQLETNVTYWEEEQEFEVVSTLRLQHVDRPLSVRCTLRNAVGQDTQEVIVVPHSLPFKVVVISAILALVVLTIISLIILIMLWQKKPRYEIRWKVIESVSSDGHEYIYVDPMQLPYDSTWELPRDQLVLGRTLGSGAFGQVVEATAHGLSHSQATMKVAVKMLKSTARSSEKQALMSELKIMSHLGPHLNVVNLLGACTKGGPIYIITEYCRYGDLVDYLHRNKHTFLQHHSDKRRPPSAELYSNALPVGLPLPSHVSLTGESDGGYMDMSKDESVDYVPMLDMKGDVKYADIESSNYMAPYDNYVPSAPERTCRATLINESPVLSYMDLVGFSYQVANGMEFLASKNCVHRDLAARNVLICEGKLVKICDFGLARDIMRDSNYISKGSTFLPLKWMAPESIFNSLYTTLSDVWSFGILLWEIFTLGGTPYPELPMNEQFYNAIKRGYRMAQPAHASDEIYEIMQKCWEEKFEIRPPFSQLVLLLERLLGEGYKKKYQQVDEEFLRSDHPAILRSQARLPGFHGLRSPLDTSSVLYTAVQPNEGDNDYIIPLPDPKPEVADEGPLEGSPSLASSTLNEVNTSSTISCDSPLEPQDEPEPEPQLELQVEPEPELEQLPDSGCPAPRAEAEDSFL
Protocol: as §1, §2, §3

[9] = target: T7, PDGFRa (Homo sapiens, UniProt P16234); assay: ADP-Glo kinase inhibitory assay, PDGFRa; format: biochemical; conditions: read-out: % Inhibition at 10 nM, PDGFRa
T7 construct: purchased Promega
Protocol: as §1, §2, §3

[10] = system: K-562 (chronic myelogenous leukemia); assay: MTT anti-proliferative assay, K-562; format: cell-based; conditions: Homo sapiens, K562, 48 h, 50% growth inhibition
Protocol: as §4, §5

[11] = target: T8, InsR (Homo sapiens, UniProt P06213); assay: ADP-Glo kinase inhibitory assay, InsR; format: biochemical; conditions: for selectivity for the gene insulin receptor, in words: 10 nM, panel of eight receptor tyrosine kinases; for inhibition at 0.01 µM: read-out: % Inhibition at 10 nM, InsR
T8 construct: purchased Promega
Protocol: as §1, §2, §3

[12] = system: A549 (lung carcinoma); assay: MTT anti-proliferative assay, A-549; format: cell-based; conditions: Homo sapiens, 48 h, 50% growth inhibition
Protocol: as §4, §5

[13] = system: RPMI 1788 (B lymphocyte, human normal cells); assay: MTT assay on normal cells RPMI 1788; format: cell-based; conditions: MTT 48 h
Protocol: as §4
Human cell lines were obtained from the Institute of Cytology, Russian Academy of Sciences. The cell lines studied were maintained in RPMI 1640 medium (AppliChem, Darmstadt, Germany) supplemented with 20% (HL-60, RPMI 1788) fetal calf serum (HyClone, Cramlington, UK), in DMEM (A 549) and Eagle’s MEM (AppliChem) (MCF7, HeLa) with 10% fetal calf serum (HyClone). Cells were cultivated at 37 °C in a humidified atmosphere of 5% CO2. Cellular sensitivities to clofarabine and its lipid derivatives were measured with the MTT assay. Cells were plated in triplicate in 96-well plates (10^5 cells/well for suspended cell cultures and 5 × 10^3 cells/well for monolayer cultures); on the same day (suspended cell cultures) or on the following day (monolayer cultures), compounds were added at the appropriate dilutions. Plates were incubated under standard conditions for 48 h. Thereafter, 10 μL of MTT (Sigma) in phosphate-buffered saline (5 mg/mL) was added. The plates were incubated for an additional 4 h, and 150 μL of dimethyl sulfoxide (DMSO) was added to dissolve the formazan crystals. The optical density was read on a HALO MPR-95 Microplate Reader (Dynamica Scientific Ltd., Australia) at 570 nm. The antiproliferative effects were determined as degrees of inhibition of tumor cells (%).

[14] = system: MCF-7 (breast adenocarcinoma); assay: MTT anti-proliferative assay, MCF-7; format: cell-based; conditions: Homo sapiens, MCF7, 48 h, 50% growth inhibition
Protocol: as §4, §5

[15] = system: OKP-GS (carcinoma of the kidney); assay: MTT anti-proliferative assay, OKP-GS; format: cell-based; conditions: Homo sapiens, 48 h, 50% growth inhibition
Protocol: as §4, §5

Structure (SMILES)	inhibition at 0.01 µM [1] [%]	inhibition at 0.01 µM [2] [%]	inhibition at 0.01 µM [3] [%]	inhibition at 0.01 µM [4] [%]	inhibition at 0.01 µM [5] [%]	IC50 [6] [µM]	IC50 [7] [µM]	inhibition at 0.01 µM [8] [%]	inhibition at 0.01 µM [9] [%]	IC50 [10] [µM]	selectivity for the gene insulin receptor, in words [11]	inhibition at 0.01 µM [11] [%]	IC50 [12] [µM]	IC50 [14] [µM]	IC50 [15] [µM]	melting point [°C]	inhibitory activity in relation to HER-4, in words [3]	inhibition at 100 µM [13] [%]
Cc1cn(-c2cc(NCc3ccc(C(=O)Nc4cc(-n5cnc(C)c5)cc(C(F)(F)F)c4)cc3)cc(C(F)(F)F)c2)cn1 [Compound 8, N-(3-(4-methyl-1H-imidazol-1-yl)-5-(trifluoromethyl)phenyl)-4-(((3-(4-methyl-1H-imidazol-1-yl)-5-(trifluoromethyl)phenyl)amino)methyl)benzamide]						87							85	9.5	> 100	200 to 202		19.3
Cc1cn(-c2cc(NC(=O)c3ccc(CNc4cc([N+](=O)[O-])ccc4C)cc3)cc(C(F)(F)F)c2)cn1 [Compound 9, N-(3-(4-methyl-1H-imidazol-1-yl)-5-(trifluoromethyl)phenyl)-4-(((2-methyl-5-nitrophenyl)amino)methyl)benzamide]							57			51			> 100	> 100	> 100	113 to 115		
Cc1cn(-c2cc(NC(=O)c3ccc(C)c(Nc4nccc(-c5cccnc5)n4)c3)cc(C(F)(F)F)c2)cn1 [Nilotinib, reference compound]							55			< 0.1					55			< 0.1
CNC(=O)c1cc(Oc2ccc(NC(=O)Nc3ccc(Cl)c(C(F)(F)F)c3)cc2)ccn1 [Sorafenib, reference compound]													58	55	51			

Further lines, with some results ahead:

inhibition at 0.01 µM [1] [%]	inhibition at 0.01 µM [2] [%]	inhibition at 0.01 µM [3] [%]	inhibition at 0.01 µM [4] [%]	inhibition at 0.01 µM [5] [%]	IC50 [6] [µM]	IC50 [7] [µM]	inhibition at 0.01 µM [8] [%]	inhibition at 0.01 µM [9] [%]	IC50 [10] [µM]	selectivity for the gene insulin receptor, in words [11]	inhibition at 0.01 µM [11] [%]	IC50 [12] [µM]	IC50 [14] [µM]	IC50 [15] [µM]	melting point [°C]	inhibitory activity in relation to HER-4, in words [3]	Structure (SMILES)	inhibition at 100 µM [13] [%]
0	0	0	0	0	51.8	45	0	0	69	high selectivity	57	53.5	54	70			Cc1cn(-c2cc(NC(=O)c3ccc(CCl)cc3)cc(C(F)(F)F)c2)cn1 [Compound 5, 4-(Chloromethyl)-N-(3-(4-methyl-1H-imidazol-1-yl)-5-(trifluoromethyl)phenyl)benzamide]	< 0.1
0	0	12	0	1		49	0	0	66		49				130 to 132		CCOC(=O)CC[C@H](NC(=O)c1ccc(CNc2nccc(-c3cccnc3)n2)cc1)C(=O)OCC [Compound 23, Diethyl (4-(((4-(pyridin-3-yl)pyrimidin-2-yl)amino)methyl)benzoyl)glutamate]	11.5
0	0	0	0	0		30.6	2	8	6.9	high selectivity	50	> 100	71		106 to 109		Cc1cn(-c2cc(NC(=O)c3ccc(CN4CCN(C(=O)c5ccccc5F)CC4)cc3)cc(C(F)(F)F)c2)cn1 [Compound 28j, 4-{[4-(2-Fluorobenzoyl)piperazin-1-yl]methyl}-N-[3-(4-methyl-1H-imidazol-1-yl)-5-(trifluoromethyl)phenyl]benzamide]	6.44
23	0	43	0	0		38.5	2	0	3.6		33				90 to 93	comparable to imatinib	Cc1cn(-c2cc(NC(=O)c3ccc(CN4CCN(C(=O)c5cccc(F)c5)CC4)cc3)cc(C(F)(F)F)c2)cn1 [Compound 28k, 4-{[4-(3-Fluorobenzoyl)piperazin-1-yl]methyl}-N-[3-(4-methyl-1H-imidazol-1-yl)-5-(trifluoromethyl)phenyl]benzamide]	3.14
17	0	51	0	0	> 100	53.5	7	0	4.5		0	> 100	77	> 100	96 to 100	comparable to imatinib	Cc1cn(-c2cc(NC(=O)c3ccc(CN4CCN(C(=O)c5cccnc5)CC4)cc3)cc(C(F)(F)F)c2)cn1 [Compound 28l]	
